Results from patent US8524745B2 (Allergan, Inc., priority 2011, dated 2013).
pIC50: −log10 of the molar value.

Biological target: T1, CCR2 (Homo sapiens, UniProt P41597)
T1 construct: expressed in transfected cells
Experiment: CCR2 calcium activity assay on FLIPR Tetra in HEK-Gqi5 cells stably expressing CCR2
Format: cell-based
Method: HEK-Gqi5 cells stably expressing CCR2 were cultured in (DMEM high glucose, 10% FBS, 1% PSA, 400 μg/ml geneticin and 50 μg/ml hygromycin. Appropriate positive control chemokines (MCP-1, MIP1A or RANTES) was used as the positive control agonist for screening compound-induced calcium activity assayed on the FLIPR^Tetra. The drug plates were prepared in 384-well microplates using the EP3 and the MuItiPROBE robotic liquid handling systems. Compounds were synthesized and tested for CCR2 activity.

T1 sequence (P41597 whole entry, species assumed): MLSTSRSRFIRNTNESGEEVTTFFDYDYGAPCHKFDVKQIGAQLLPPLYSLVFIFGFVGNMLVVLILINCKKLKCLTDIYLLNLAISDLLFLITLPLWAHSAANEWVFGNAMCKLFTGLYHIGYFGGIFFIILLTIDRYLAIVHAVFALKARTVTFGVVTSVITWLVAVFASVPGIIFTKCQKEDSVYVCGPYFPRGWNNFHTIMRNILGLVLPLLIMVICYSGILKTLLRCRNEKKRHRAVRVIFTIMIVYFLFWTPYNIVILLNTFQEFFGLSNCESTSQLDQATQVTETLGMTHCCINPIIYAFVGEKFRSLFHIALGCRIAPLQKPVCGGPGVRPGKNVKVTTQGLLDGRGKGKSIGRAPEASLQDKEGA

Structure (SMILES)	CCR2 % ANTAG	pIC50
Cn1sc(=O)c2cc(S(=O)(=O)Nc3cccc(NS(=O)(=O)c4cccs4)c3)ccc21 [1-methyl-3-oxo-N-{3-[(2-thienylsulfonyl)amino]phenyl}-1,3-dihydro-2,1-benzisothiazole-5-sulfonamide]	23%	5.54
Cn1sc(=O)c2cc(S(=O)(=O)Nc3cccc(SC(F)(F)F)c3)ccc21 [1-methyl-3-oxo-N-{3-[(trifluoromethyl)thio]phenyl}-1,3-dihydro-2,1-benzisothiazole-5-sulfonamide]	85%	–
Cn1sc(=O)c2cc(S(=O)(=O)N3CCN(S(=O)(=O)c4cccs4)c4ccccc43)ccc21 [1-methyl-5-{[4-(2-thienylsulfonyl)-3,4-dihydroquinoxalin-1(2H)-yl]sulfonyl}-2,1-benzisothiazol-3(1H)-one]	65%	5.68
Cn1cnc(S(=O)(=O)Nc2ccccc2NS(=O)(=O)c2ccc3c(c2)c(=O)sn3C)c1 [1-methyl-N-(2-{[(1-methyl-1H-imidazol-4-yl)sulfonyl]amino}phenyl)-3-oxo-1,3-dihydro-2,1-benzisothiazole-5-sulfonamide]	99%	6.02
Cn1ccc(S(=O)(=O)Nc2ccccc2NS(=O)(=O)c2ccc3c(c2)c(=O)sn3C)n1 [1-methyl-N-(2-{[(1-methyl-1H-pyrazol-3-yl)sulfonyl]amino}phenyl)-3-oxo-1,3-dihydro-2,1-benzisothiazole-5-sulfonamide]	53%	5.77
Cn1cc(S(=O)(=O)Nc2ccccc2NS(=O)(=O)c2ccc3c(c2)c(=O)sn3C)cn1 [1-methyl-N-(2-{[(1-methyl-1H-pyrazol-4-yl)sulfonyl]amino}phenyl)-3-oxo-1,3-dihydro-2,1-benzisothiazole-5-sulfonamide]	60%	5.61
CSc1cccc(NS(=O)(=O)c2ccc3c(c2)c(=O)sn3C)c1 [1-methyl-N-[3-(methylthio)phenyl]-3-oxo-1,3-dihydro-2,1-benzisothiazole-5-sulfonamide]	86%	5.93
Cn1sc(=O)c2cc(S(=O)(=O)NCC(C)(C)NS(=O)(=O)c3cccs3)ccc21 [1-methyl-N-{2-methyl-2-[(2-thienylsulfonyl)amino]propyl}-3-oxo-1,3-dihydro-2,1-benzisothiazole-5-sulfonamide]	30%	–
Cc1cccc(NS(=O)(=O)c2ccc3c(c2)c(=O)sn3C)c1NS(=O)(=O)c1cccs1 [1-methyl-N-{3-methyl-2-[(2-thienylsulfonyl)amino]phenyl}-3-oxo-1,3-dihydro-2,1-benzisothiazole-5-sulfonamide]	86%	–
Cc1ccc(NS(=O)(=O)c2ccc3c(c2)c(=O)sn3C)c(NS(=O)(=O)c2cccs2)c1 [1-methyl-N-{4-methyl-2-[(2-thienylsulfonyl)amino]phenyl}-3-oxo-1,3-dihydro-2,1-benzisothiazole-5-sulfonamide]	99%	6.25
Cc1ccc(NS(=O)(=O)c2cccs2)c(NS(=O)(=O)c2ccc3c(c2)c(=O)sn3C)c1 [1-methyl-N-{5-methyl-2-[(2-thienylsulfonyl)amino]phenyl}-3-oxo-1,3-dihydro-2,1-benzisothiazole-5-sulfonamide]	102%	6.42
Cn1sc(=O)c2cc(S(=O)(=O)Nc3cccc4c3OCO4)ccc21 [N-1,3-benzodioxol-4-yl-1-methyl-3-oxo-1,3-dihydro-2,1-benzisothiazole-5-sulfonamide]	73%	5.71
Cn1sc(=O)c2cc(S(=O)(=O)Nc3cccc4c3OC(F)(F)O4)ccc21 [N-(2,2-difluoro-1,3-benzodioxol-4-yl)-1-methyl-3-oxo-1,3-dihydro-2,1-benzisothiazole-5-sulfonamide]	80%	6.00
Cn1sc(=O)c2cc(S(=O)(=O)Nc3cccc4c3OCCO4)ccc21 [N-(2,3-dihydro-1,4-benzodioxin-5-yl)-1-methyl-3-oxo-1,3-dihydro-2,1-benzisothiazole-5-sulfonamide]	76%	5.84
COc1cccc(NS(=O)(=O)c2ccc3c(c2)c(=O)sn3C)c1OC [N-(2,3-dimethoxyphenyl)-1-methyl-3-oxo-1,3-dihydro-2,1-benzisothiazolesulfonamide]	55%	5.42
Cn1sc(=O)c2cc(S(=O)(=O)Nc3ccccc3NS(=O)(=O)c3cc(Cl)ccc3Cl)ccc21 [N-(2-{[(2,5-dichlorophenyl)sulfonyl]amino}phenyl)-1-methyl-3-oxo-1,3-dihydro-2,1-benzisothiazole-5-sulfonamide]	99%	5.74

Next, values leading:

CCR2 % ANTAG	pIC50	Structure (SMILES)
84%	5.87	Cn1sc(=O)c2cc(S(=O)(=O)Nc3ccccc3NS(=O)(=O)c3ccccc3Cl)ccc21 [N-(2-{[(2-chlorophenyl)sulfonyl]amino}phenyl)-1-methyl-3-oxo-1,3-dihydro-2,1-benzisothiazole-5-sulfonamide]
103%	6.44	Cn1sc(=O)c2cc(S(=O)(=O)Nc3ccccc3NS(=O)(=O)c3ccccc3F)ccc21 [N-(2-{[(2-fluorophenyl)sulfonyl]amino}phenyl)-1-methyl-3-oxo-1,3-dihydro-2,1-benzisothiazole-5-sulfonamide]
92%	6.28	Cn1sc(=O)c2cc(S(=O)(=O)Nc3ccccc3NS(=O)(=O)c3ccc(Cl)c(Cl)c3)ccc21 [N-(2-{[(3,4-dichlorophenyl)sulfonyl]amino}phenyl)-1-methyl-3-oxo-1,3-dihydro-2,1-benzisothiazole-5-sulfonamide]
95%	5.59	Cn1sc(=O)c2cc(S(=O)(=O)Nc3ccccc3NS(=O)(=O)c3cc(Cl)cc(Cl)c3)ccc21 [N-(2-{[(3,5-dichlorophenyl)sulfonyl]amino}phenyl)-1-methyl-3-oxo-1,3-dihydro-2,1-benzisothiazole-5-sulfonamide]
96%	6.36	Cn1sc(=O)c2cc(S(=O)(=O)Nc3ccccc3NS(=O)(=O)c3cc(F)cc(F)c3)ccc21 [N-(2-{[(3,5-difluorophenyl)sulfonyl]amino}phenyl)-1-methyl-3-oxo-1,3-dihydro-2,1-benzisothiazole-5-sulfonamide]
100%	5.62	Cn1sc(=O)c2cc(S(=O)(=O)Nc3ccccc3NS(=O)(=O)c3cccc(F)c3)ccc21 [N-(2-{[(3-fluorophenyl)sulfonyl]amino}phenyl)-1-methyl-3-oxo-1,3-dihydro-2,1-benzisothiazole-5-sulfonamide]
89%	6.44	Cn1sc(=O)c2cc(S(=O)(=O)Nc3ccccc3NS(=O)(=O)c3cc(Cl)c(Cl)s3)ccc21 [N-(2-{[(4,5-dichloro-2-thienyl)sulfonyl]amino}phenyl)-1-methyl-3-oxo-1,3-dihydro-2,1-benzisothiazole-5-sulfonamide]
99%	5.97	Cn1sc(=O)c2cc(S(=O)(=O)Nc3ccccc3NS(=O)(=O)c3ccc(Cl)cc3)ccc21 [N-(2-{[(4-chlorophenyl)sulfonyl]amino}phenyl)-1-methyl-3-oxo-1,3-dihydro-2,1-benzisothiazole-5-sulfonamide]
67%	5.61	COc1ccc(S(=O)(=O)Nc2ccccc2NS(=O)(=O)c2ccc3c(c2)c(=O)sn3C)cc1 [N-(2-{[(4-methoxyphenyl)sulfonyl]amino}phenyl)-1-methyl-3-oxo-1,3-dihydro-2,1-benzisothiazole-5-sulfonamide]
104%	6.29	Cn1sc(=O)c2cc(S(=O)(=O)Nc3ccccc3NS(=O)(=O)c3ccc(Cl)s3)ccc21 [N-(2-{[(5-chloro-2-thienyl)sulfonyl]amino}phenyl)-1-methyl-3-oxo-1,3-dihydro-2,1-benzisothiazole-5-sulfonamide]
94.08%	5.93	Cn1sc(=O)c2cc(S(=O)(=O)Nc3ccc(Cl)c(Cl)c3)ccc21 [N-(3,4-dichlorophenyl)-1-methyl-3-oxo-1,3-dihydro-2,1-benzisothiazole-5-sulfonamide]
84%	–	Cn1sc(=O)c2cc(S(=O)(=O)Nc3cccc(Cl)c3)ccc21 [N-(3-chlorophenyl)-1-methyl-3-oxo-1,3-dihydro-2,1-benzisothiazole-5-sulfonamide]
84%	5.61	COc1cccc(NS(=O)(=O)c2ccc3c(c2)c(=O)sn3C)c1 [N-(3-methoxyphenyl)-1-methyl-3-oxo-1,3-dihydro-2,1-benzisothiazole-5-sulfonamide]
92%	6.19	COc1cccc(S(=O)(=O)Nc2cc(Cl)c(Cl)cc2NS(=O)(=O)c2ccc3c(c2)c(=O)sn3C)c1 [N-(4,5-dichloro-2-{[(3-methoxyphenyl)sulfonyl]amino}phenyl)-1-methyl-3-oxo-1,3-dihydro-2,1-benzisothiazole-5-sulfonamide]
103%	5.63	Cn1sc(=O)c2cc(S(=O)(=O)Nc3cc(Cl)c(Cl)cc3NS(=O)(=O)c3cc(Cl)c(Cl)s3)ccc21 [N-(4,5-dichloro-2-{[(4,5-dichloro-2-thienyl)sulfonyl]amino}phenyl)-1-methyl-3-oxo-1,3-dihydro-2,1-benzisothiazole-5-sulfonamide]
86%	5.99	COc1ccc(S(=O)(=O)Nc2cc(Cl)c(Cl)cc2NS(=O)(=O)c2ccc3c(c2)c(=O)sn3C)cc1 [N-(4,5-dichloro-2-{[(4-methoxyphenyl)sulfonyl]amino}phenyl)-1-methyl-3-oxo-1,3-dihydro-2,1-benzisothiazole-5-sulfonamide]
95%	6.07	Cc1ccc(S(=O)(=O)Nc2cc(Cl)c(Cl)cc2NS(=O)(=O)c2ccc3c(c2)c(=O)sn3C)s1 [N-(4,5-dichloro-2-{[(5-methyl-2-thienyl)sulfonyl]amino}phenyl)-1-methyl-3-oxo-1,3-dihydro-2,1-benzisothiazole-5-sulfonamide]
